According to paper PMC3927586, “Protein kinase C-delta inactivation inhibits the proliferation and survival of cancer stem cells in culture and in vivo” (BMC Cancer, 2014):

Legend:
[1] = Drug-like properties: hydrophobicity; assay type: physicochemical
[2] = test system: cells with aberrant Ras signaling; set-up: method as in PMID 24506253; settings: cited from earlier work
[3] = mice; cited from earlier work
[4] = test system: PrCSC cells; experiment: Cytotoxicity (LDH release) in prostate cancer stem cells; assay type: cell-based, human; settings: dose-dependent, 24 and 72 hr
Procedure: LDH release was assessed by spectrophotometrically measuring the oxidation of NADH in both the cells and media. Cells were seeded in 24-well plates, and exposed to PKCδ inhibitors or vehicle. After different times of exposure, cytotoxicity was quantified by a standard measurement of LDH release with the use of the LDH assay kit (Roche Molecular Biochemicals) according to the manufacturer’s protocol. Briefly, total culture medium was cleared by centrifugation. For assay of released LDH, supernatants were collected. To assess total LDH in cells, Triton X-100 was added to vehicle (control) wells to release intracellular LDH. LDH assay reagent was added to lysates or supernatants and incubated for up to 30 min at room temperature in dark, the reaction was stopped, and the absorbance was measured at 490 nm. The percentage of LDH release was then calculated as the LDH in the supernatants as a fraction of the total LDH.
Figure 2 Effects of PKCδ inhibitors on human cancer stem cells. (A) PCSC and PrCSC cells at 80% confluence were exposed to rottlerin. DMSO served as vehicle control (Vehicle). After 24 and 72 hr of exposure, cell mass was evaluated by MTT assay. Control values were normalized to 100%. p values for comparison between treatments reached significance at 24 hr of exposure (p≤0.01) for both cell types, and remained significant at 72 hr. (B) PCSC and PrCSC cells at 50% confluence were exposed to rottlerin. Cytotoxicity was evaluated by LDH-release assay. […] Viable cells were enumerated and re-plated in media without inhibitor, and colony numbers were quantitated 15 days later. p values for comparison of treatment effects on clonogenic capacity reached significance (p=0.005) at 18 hr of exposure and remained significant for all subsequent exposure times. […] Cytotoxicity was evaluated by LDH-release assay, as in panel B. p values for comparison between treatment effects on LDH release reached significance at 24 hr of exposure to 2.5 μM KAM1 for PCSC cells and at 10 μM for PrCSC (p≤0.01), and remained significant at 72 hr for all concentrations of KAM1. […]

[5] = test system: normal primary cells or cell lines; settings: at the concentrations employed herein; cited from earlier work
[6] = test system: PrCSC cells; experiment: Cell proliferation (MTT) of prostate cancer stem cells; assay type: cell-based, human; settings: as early as 24 hr after exposure
Procedure: Cell proliferation was assessed using an MTT [3-(4,5-dimethylthiazol-2-yl)-2,5-diphenyltetrazolium bromide] assay (Roche, Mannheim, Germany). The number of viable cells growing in a single well on a 96-well microtiter plate was estimated by adding 10 μl of MTT solution (5 mg/ml in phosphate-buffered saline [PBS]). After 4 h of incubation at 37°C, the stain was diluted with 100 μl of dimethyl sulfoxide. The optical densities were quantified at a test wavelength of 570 nm and a reference wavelength of 690 nm on a multiwell spectrophotometer. In some assays, MTS was used as substrate (Promega, Madison, WI), and the absorbance of the product was monitored at 490 nm. Cell enumeration was carried out using a hemocytometer, and viable cells identified by trypan blue exclusion.
Figure 2 Effects of PKCδ inhibitors on human cancer stem cells. (A) PCSC and PrCSC cells at 80% confluence were exposed to rottlerin. DMSO served as vehicle control (Vehicle). After 24 and 72 hr of exposure, cell mass was evaluated by MTT assay. […] Cytotoxicity was evaluated by LDH-release assay. […] Viable cells were enumerated and re-plated in media without inhibitor, and colony numbers were quantitated 15 days later. p values for comparison of treatment effects on clonogenic capacity reached significance (p=0.005) at 18 hr of exposure and remained significant for all subsequent exposure times. […]

[7] = test system: PCSC; experiment: Clonogenic assay with washout; assay type: cell-based, human; settings: rottlerin 10 μM, colonies at 15 days
Procedure: 100,000 cells were seeded on 100 mm dishes with 10 ml media per dish. On day 4, cells were treated with a PKCδ inhibitor or vehicle control for either 6, 18, 24 or 48 hours. Cells were trypsinized; counted via the trypan blue exclusion method in order to determine the number of live cells in the sample, and 300 live cells were seeded in triplicate onto 6-well plates. Cells were monitored for appropriate colony size and re-fed every three to four days. At Day 15, cells were stained with ethidium bromide and counted using UVP LabWorks software (Waltham, MA).
Figure 2 Effects of PKCδ inhibitors on human cancer stem cells. (A) PCSC and PrCSC cells at 80% confluence were exposed to rottlerin. DMSO served as vehicle control (Vehicle). After 24 and 72 hr of exposure, cell mass was evaluated by MTT assay. Control values were normalized to 100%. p values for comparison between treatments reached significance at 24 hr of exposure (p≤0.01) for both cell types, and remained significant at 72 hr. […] Cytotoxicity was evaluated by LDH-release assay. […] Viable cells were enumerated and re-plated in media without inhibitor, and colony numbers were quantitated 15 days later. p values for comparison of treatment effects on clonogenic capacity reached significance (p=0.005) at 18 hr of exposure and remained significant for all subsequent exposure times. […]

[8] = test system: human breast cancer stem cell (BCSC) xenografts; experiment: Breast cancer stem cell xenograft model; assay type: in vivo, mice; settings: rottlerin 5,000 μg/kg intraperitoneally, 15 days
Procedure: These studies were performed with the approval of the Institutional Animal Care and Use Committee of Boston University. Breast cancer stem cells (2 × 10^5) grown from a metastatic tumor were suspended in human breast cancer stem cell complete growth media (Celprogen, San Pedro, CA) and injected subcutaneous into the right flank of female J:NU mice (The Jackson Laboratory, ME) under anesthesia. After palpable tumors developed, the mice were divided into two groups of animals. The control group received daily intraperitoneal injections of vehicle (DMSO) while the treatment group received daily intraperitoneal injections of a PKCδ inhibitor (rottlerin 5,000 μg/kg) for 15 days. The length and width of tumors were measured with a vernier caliper and tumor volumes were calculated. Survival was calculated as the day tumors reached the maximum size allowed by the protocol (2 cm diameter).
Figure 6 Effects of PKCδ inhibitor on tumor growth and survival in a xenograft human breast cancer stem cell model. Breast cancer stem cell xenografts were established and animals were treated with vehicle or rottlerin for 15 days, as described in Methods. (A) Tumor volumes plotted over time, until tumors in all the control animals reached the maximum volume allowed by the protocol (approximately 15 days). […]

hydrophobicity [1]	Compound	concentrations producing cytotoxic activity against cells with aberrant Ras signaling [2]	tolerability when administered orally or intraperitoneally [3]	cytotoxicity in PrCSC (LDH release) [4]	cytostatic or cytotoxic effect on normal primary cells or cell lines [5]	effect on proliferation of PrCSC [6]	decrease of clonogenic capacity of PCSC ([7]; 18 hr exposure then washout)	reduction of clonogenic potential of PCSC ([7]; 48 hr exposure then washout)	survival / tumor-free status after treatment ([8]; monitoring continued after cessation)	effect on growth of BCSC xenografts ([8]; nude (J:NU) mice, vs vehicle)
highly hydrophobic	CC1(C)C=Cc2cc(CCn3c4ccccc4c4ccccc43)cc(C=O)c2O1 [BJE6-106, 6-(2-(9H-carbazol-9-yl)ethyl)-2,2-dimethyl-2H-chromene-8-carbaldehyde]	nM concentrations	–	–	–	–	–	–	–	–
–	CC(=O)c1c(O)c(C)c(O)c(Cc2c(O)c3c(c(C(=O)/C=C/c4ccccc4)c2O)OC(C)(C)C=C3)c1O [rottlerin, Rottlerin, reference compound]	–	well-tolerated	induced cytotoxicity	not cytostatic or cytotoxic	significant dose-dependent inhibition of proliferation	40%	more than 90%	some animals remaining tumor-free even at day 300	effectively inhibited the growth of the xenografts, even producing tumor regression
